From paper PMC3827244, “An Ultrasensitive High Throughput Screen for DNA Methyltransferase 1-Targeted Molecular Probes” (PLoS ONE, 2013)
Read-outs that look alike come from different tables or passages of the source.

What was measured:
[1] = biological target: T1, DNMT1 (amino acids 621–1616) (Homo sapiens, UniProt P26358); test: Validation of HTS hits, endonuclease-coupled DNA methylation assay; type: biochemical; parameters: Percent Activity: concentration or dose not given beside the values; conditions: for vo (initial velocity): first 12 minutes of GlaI corrected triplicate reaction traces; for Percent Activity: from initial velocity compared to DMSO control; for Normalized RFU: normalized to DMSO control (100) and GlaI control without DNMT1 (0); for RFU: relative fluorescence after 25-minute incubation at 37 °C, 10.9 µM test compound, three replicates
T1 construct: RFTS-lacking DNMT1, amino acids 621–1616; made in house
T1 sequence (P26358 621-1616): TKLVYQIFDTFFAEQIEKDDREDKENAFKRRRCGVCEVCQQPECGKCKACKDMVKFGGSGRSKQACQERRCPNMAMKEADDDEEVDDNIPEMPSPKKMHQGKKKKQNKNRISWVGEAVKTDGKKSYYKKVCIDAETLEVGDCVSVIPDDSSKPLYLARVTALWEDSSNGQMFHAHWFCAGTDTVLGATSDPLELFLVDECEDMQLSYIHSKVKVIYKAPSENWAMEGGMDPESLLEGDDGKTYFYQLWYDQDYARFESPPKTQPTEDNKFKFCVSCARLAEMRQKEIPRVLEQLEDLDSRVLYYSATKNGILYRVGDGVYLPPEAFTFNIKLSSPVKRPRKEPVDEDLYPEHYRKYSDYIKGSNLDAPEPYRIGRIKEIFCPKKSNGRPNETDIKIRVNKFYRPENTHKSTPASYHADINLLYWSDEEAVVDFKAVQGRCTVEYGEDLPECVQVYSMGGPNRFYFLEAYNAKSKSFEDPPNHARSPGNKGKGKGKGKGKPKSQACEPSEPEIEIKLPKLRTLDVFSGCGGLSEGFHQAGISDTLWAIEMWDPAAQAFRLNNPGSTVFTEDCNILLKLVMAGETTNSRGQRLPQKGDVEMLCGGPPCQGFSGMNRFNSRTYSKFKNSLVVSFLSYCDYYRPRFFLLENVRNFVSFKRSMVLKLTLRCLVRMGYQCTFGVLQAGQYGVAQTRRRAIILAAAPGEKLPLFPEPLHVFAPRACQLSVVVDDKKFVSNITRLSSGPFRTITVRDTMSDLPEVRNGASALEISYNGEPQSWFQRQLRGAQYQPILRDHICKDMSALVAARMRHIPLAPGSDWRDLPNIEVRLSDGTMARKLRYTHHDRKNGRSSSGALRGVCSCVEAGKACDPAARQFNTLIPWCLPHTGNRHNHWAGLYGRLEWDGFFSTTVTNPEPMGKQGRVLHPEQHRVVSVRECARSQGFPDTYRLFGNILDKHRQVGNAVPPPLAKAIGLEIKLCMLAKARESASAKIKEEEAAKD
Description: DNMT activity was measured at 37°C using a fluorogenic DNA methylation assay. In short, a hemi-methylated hairpin oligonucleotide with a 5′ fluorophore and a 3′ quencher is methylated by addition of a DNMT and the methyl-donating co-factor, S-adenosyl methionine (SAM, HPLC-purified from Sigma). The fully methylated product is a substrate for the restriction endonuclease GlaI (Sibenzyme), which cleaves the oligonucleotide, releasing the fluorophore from the quencher and generating fluorescence. The oligonucleotide substrate (5′-FAM–[…]m[…]mCGmCATAGG-3′-Iowa Black, in which mC denotes 5-methyldeoxycytidylate residues), termed 8006, was synthesized by Integrated DNA Technologies, Coralville, IA. 96 well assays were performed in Co-Star black half-area plates and read in a Biotek Synergy Neo plate reader. 384 well assays were performed in Nunc flat-bottomed black plates and read in a PerkinElmer EnVision plate reader. FAM fluorescence was measured using excitation and emission wavelengths of 485 nm and 520 nm, respectively.
HTS against the Spectrum compound collection (Microsource, Gaylordsville, CT) was performed in eight 384 well plates. Using a Multiflo dispenser (Biotek), 75 µl of assay buffer (10.8 mM Tris-HCl pH 7.5, 1.08 mM MgCl2, 1.08 mM DTT, 108 mM potassium glutamate, 0.108 mg/ml BSA, 10.8 µM SAM, 21.6 nM oligonucleotide 8006, 5.4% glycerol) was dispensed into each well. 1 µl of each compound at 880 µM in DMSO (columns 3–22) or DMSO (columns 1, 2, 23 and 24) was added to assay plates using a Microlab Star liquid handling robot (Hamilton) and the plate was incubated at 37°C for 10 minutes. Following this warming step, 5 µl enzyme solution (either a DNMT1-containing solution of 20 mM Tris-HCl, pH 7.5, 300 mM NaCl, 2 mM DTT, 49 nM DNMT1 (amino acids 621–1616), 0.08 U/µl GlaI, 30% glycerol to columns 2–23 or a GlaI control solution of 20 mM Tris-HCl, pH 7.5, 300 mM NaCl, 2 mM DTT, 0.08 U/µl GlaI, 30% glycerol to columns 1 and 24) was added and the plate was again incubated at 37°C for 25 minutes. […] Each 384 well plate contained two columns of negative (n) and positive (p) controls for inhibitor activity. Columns 2 and 23 were the n controls with DMSO without test compound. Columns 1 and 24 were the p controls without DNMT1. Thus, 320 compounds were assayed per 384 well plate in columns 3–22.
Data across the screen were normalized to the p (0% DNMT1 activity) and n (100% DNMT1 activity) controls on each plate. […] Validation assays (81 µl total volume, identical buffer conditions to those used in the HTS screen) were performed in triplicate in 96 well plates with FAM fluorescence measured over the course of 1 hour. A control containing GlaI in the absence of DNMT1 was subtracted from each assay condition. Corrected assay traces were plotted and compared to DMSO-containing control traces in Prism (GraphPad Software, Inc).

[2] = biological target: T1, DNMT1 (amino acids 621–1616); test: Differential scanning fluorimetry (DSF) assay; type: binding; conditions: 100 µM compound; for Tm: 2 µM DNMT1, no DNA or SAM, DMSO 46.5 ± 0.1; for ∆Tm: shift versus DMSO control
Description: DSF [32] was used to assess the ability of the validated inhibitors to bind directly to DNMT1 in the absence of DNA and SAM and alter the observed melting temperature (Tm). Assays (25 µl) were conducted in triplicate in a Bio-Rad C1000 Thermal Cycler – CFX Real-Time System using the FRET channel and contained 50 mM HEPES pH 7.5, 150 mM NaCl, 2 µM DNMT1 (amino acids 621–1616), 5X Sypro Orange (Invitrogen Molecular Probes), 100 µM compound, and 1% DMSO. A DMSO control assay in the absence of compounds was also examined. Temperature was increased from 25 to 95°C by 0.5°C per minute. Fluorescence traces were exported and analyzed by fitting to the Boltzmann equation in Prism to determine the Tm.

[3] = biological target: T1, DNMT1 (amino acids 621–1616); test: Detergent test, endonuclease-coupled DNA methylation assay; type: biochemical; conditions: 5 µM compound
Source text: The effect of detergent on observed DNMT1 inhibition was examined using the endonuclease-coupled DNA methylation assay. […] A control containing GlaI in the absence of DNMT1 was subtracted from each assay condition. Corrected assay traces were fitted in Prism.

calf thymus DNA = test: DNA intercalation assay (ethidium bromide displacement); type: binding; conditions: 10 µM compound, 15 µg/ml ctDNA, 1.5 µM ethidium bromide; DMSO 2370 ± 190
Description: DNA intercalation was assessed by examining the ability of the compounds to displace ethidium bromide from calf thymus DNA (ctDNA; Sigma). Duplicate assays (100 µl) were conducted in black 96 well plates and contained 15 µg/ml ctDNA, 1.5 µM ethidium bromide and 10 µM compound in methylation assay buffer. DMSO was used as a negative control and daunorubicin (Sigma) was used as a positive control. Fluorescence was measured using excitation and emission wavelengths of 320 nm and 600 nm, respectively.

M.SssI DNMT = biological target: T2, M.SssI DNMT (Spiroplasma monobiae, UniProt P15840); test: Compound selectivity, endonuclease-coupled DNA methylation assay; type: biochemical, bacterial; conditions: 1.25 h; 20 µM inhibitor, 20 nM methyltransferase, 0.25 mM SAM; read-out: Percent activity, M.SssI DNMT
T2 construct: purchased New England Biolabs
T2 sequence (P15840 whole entry): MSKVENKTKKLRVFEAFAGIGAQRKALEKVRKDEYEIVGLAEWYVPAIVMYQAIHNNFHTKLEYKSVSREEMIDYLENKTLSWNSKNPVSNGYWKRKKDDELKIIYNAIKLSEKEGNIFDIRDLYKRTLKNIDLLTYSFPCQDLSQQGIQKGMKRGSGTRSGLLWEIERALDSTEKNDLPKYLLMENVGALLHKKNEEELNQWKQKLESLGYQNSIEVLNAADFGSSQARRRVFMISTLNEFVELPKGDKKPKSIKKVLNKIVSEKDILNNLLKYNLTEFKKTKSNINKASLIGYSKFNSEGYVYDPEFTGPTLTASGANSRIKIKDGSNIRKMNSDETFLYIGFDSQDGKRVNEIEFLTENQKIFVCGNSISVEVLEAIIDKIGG
Description: After identifying direct inhibitors of DNMT1 lacking the RFTS domain, inhibitor selectivity was assessed by examining inhibition of RFTS-containing DNMT1 (amino acids 351–1616), CD-DNMT3A/DNMT3L complex, and the bacterial cytosine methyltransferase from M. SssI (New England Biolabs) using the endonuclease-coupled DNA methylation assay. Triplicate assays (100 µl) containing 0.25 mM SAM, 0.2 µM oligonucleotide 8006, 0.8 U GlaI, 20 nM methyltransferase, 20 µM inhibitor and 1% DMSO were conducted in 96 well plates. Following enzyme addition, assay plates were incubated at 37°C for 75 min and fluorescence was measured in a BioTek Neo plate reader. A control containing only GlaI was subtracted from each assay. […] Percent activity was determined by comparing product formation to a DMSO containing control assay.

[4] = absence of 0.01% Triton X-100, read-out: Percent activity, 0.01% Triton X-100 -
[5] = presence of 0.01% Triton X-100, read-out: Percent activity, 0.01% Triton X-100 +

SMILES | vo (initial velocity) [1] [RFU/min] | Percent Activity [1] [%] | Normalized RFU [1] | RFU [1] [RFU] | Tm [2] | ∆Tm [2] | remaining activity at 5 µM [3, 4] [%] | remaining activity at 5 µM [3, 5] [%] | RFU (ethidium bromide fluorescence) (calf thymus DNA) [RFU] | remaining activity at 20 µM (M.SssI DNMT) [%]
O=C(O)C(S)C(S)C(=O)O (stereo not shown) [Cmpd 51] | 5 ± 1 | 9 | 6 | 612 ± 55 | 49.0 ± 0.1 ºC | +2.5 ºC | 10 | 8 | 2525 ± 200 | 36 ± 7
O=C(O)c1cc(O)c2c(c1)[C@@H]([C@H]1c3cc(C(=O)O)cc(O)c3C(=O)c3c(O[C@H]4O[C@H](CO)[C@@H](O)[C@H](O)[C@H]4O)cccc31)c1cccc(O[C@H]3O[C@H](CO)[C@@H](O)[C@H](O)[C@H]3O)c1C2=O [Cmpd 22] |  | 0 | 7 | 621 ± 12 | 47.5 ± 0.1 ºC | +1.0 ºC | 7 | 9 | 2415 ± 150 | 20 ± 5
CC(=O)NCCc1ccc(O)c(-c2c(O)c(O)c3c(c2O)C(=O)c2c(cc(O)c(C(=O)O)c2C(=O)O)C3=O)c1 [Cmpd 40, Laccaic acid A] | 6 ± 1 | 11 | 5 | 602 ± 4 | 48.5 ± 0.1 ºC | +2.0 ºC | 56 | 58 | 2311 ± 148 | 82 ± 10
CC1/C=C/C=C/C=C/C=C/C=C/C=C/C=C/C(O[C@@H]2O[C@H](C)[C@H](O)[C@@H](O)[C@@H]2N)CC(O)C(C(=O)O)C(O)CC(=O)CC(O)CC(O)CC(O)CC(=O)CCCC(=O)CC(=O)OC1C(C)CC(C)C(O)CC(=O)c1ccc(N)cc1 (stereo partly shown) [Cmpd 24] | 5 ± 1 | 9 | 11 | 677 ± 60 | 47.5 ± 0.1 ºC | +1.0 ºC | 0 | 0 | 2389 ± 64 | 49 ± 12
O=c1c(O)c(-c2ccc(O)c(O)c2)oc2c(O)c(O)cc(O)c12 [Cmpd 33] | 25 ± 3 | 45 | 46 | 1145 ± 147 | 64.4 ± 0.2 ºC | +17.9 ºC | 53 | 47 | 2524 ± 45 | 86 ± 9
O=C(O)c1cc(O)c2c(c1)[C@@H]([C@@H]1c3cc(C(=O)O)cc(O)c3C(=O)c3c(O[C@H]4O[C@H](CO)[C@@H](O)[C@H](O)[C@H]4O)cccc31)c1cccc(O[C@H]3O[C@H](CO)[C@@H](O)[C@H](O)[C@H]3O)c1C2=O [Cmpd 36] |  | 0 | 5 | 591 ± 41 | 47.4 ± 0.1 ºC | +0.9 ºC | 0 | 0 | 2309 ± 60 | 40 ± 7
Oc1cc(Cl)ccc1Oc1ccc(Cl)cc1Cl [Cmpd 13, triclosan] | 15 ± 2 | 27 | 19 | 779 ± 42 | 47.5 ± 0.1 ºC | +1.0 ºC | 52 | 48 | 2406 ± 5 | 25 ± 4
O=C1c2ccccc2C(=O)c2c1ccc(O)c2O [Cmpd 26, alizarin] | 27 ± 2 | 49 | 37 | 1024 ± 110 | 48.5 ± 0.1 ºC | +2.0 ºC | 67 | 63 | 2364 ± 30 | 68 ± 11
CSc1nc2cc(Cl)c(Oc3cccc(Cl)c3Cl)cc2[nH]1 [Cmpd 29, triclabendazole] | 20 ± 2 | 36 | 27 | 889 ± 20 | 48.3 ± 0.1 ºC | +1.8 ºC | 52 | 46 | 2500 ± 144 | 19 ± 6
